The source of these data is patent US20230321044A1, “TREATMENT OR PREVENTION METHOD FOR CHRONIC HEART FAILURE” (Japan Tobacco Inc., priority 2020, published 2023).

Entries after “also recorded” stand apart in the source; their conditions may differ.

For series [1], the system named is post-myocardial infarction heart failure rats. As to the kind of experiment: Assessment of cardiac function in rats with post-myocardial infarction heart failure (Test Example 1). Format: in vivo, rat. Here is the method:
Male SD rats (8-week old, Japan SLC, Inc.) were anesthetized with pentobarbital, then, under controlled mechanical ventilation, underwent thoracotomy and permanent ligation of the left anterior descending coronary artery to prepare rats with post-myocardial infarction heart failure. A sham-operated group was prepared by undergoing only thoracotomy in the same way to expose the heart. Two weeks later, vehicle (0.5% methylcellulose solution) or Compound 1 (3 mg/kg group or Ascending Dose group) was orally administered once daily to the group of post-myocardial infarction heart failure rat, and the vehicle was orally administered once daily to the sham-operated group. The dose for the Ascending Dose group was started with 3 mg/kg, increased to 6 mg/kg after two weeks and to 8 mg/kg after two more weeks, and maintained at 8 mg/kg thereafter. After eight weeks of administration, an ultrasonograph (Aplio 300, Toshiba Medical Systems Corporation) was used to measure the left ventricular ejection fraction, and Catheter-tipped micromanometer (Model SPR-320, Millar Inc.) was inserted into the left ventricle via the left carotid artery to measure the left ventricular end-diastolic pressure. For statistical analysis, Aspin-Welch t test was conducted between the sham-operated vehicle-administered group and the vehicle-administered group of post-myocardial infarction heart failure rats. Steel’s multiple comparison test was conducted for the Compound 1 group to the vehicle group of post-myocardial infarction heart failure rats. The significance level was two-sided 5%. Form the results, it was confirmed that the vehicle-administered group of post-myocardial infarction heart failure rats developed HFrEF because the left ventricular ejection fraction was decreased and the left ventricular end-diastolic pressure was increased, compared with the sham-operated vehicle-administered group.

The test system of series [2] is hypertensive heart failure rats. As to the kind of experiment: Assessment of cardiac function in rats with hypertensive heart failure (Test Example 2). Format: in vivo, rat. On the procedure: Male DIS/Eis (Dahl-Iwai S) rats (Dahl rats) (7-week old, Japan SLC, Inc.) were fed a high-salt diet (MF 8% sodium chloride-adjusted feed, Oriental Yeast Co., ltd.) to prepare hypertensive heart failure rats. Normal controls were fed a normal diet (CRF-1 solid, Oriental Yeast Co., ltd.). Three weeks later, after confirmation of the development of pathological condition (hypertension or cardiomegaly), vehicle (0.5% methylcellulose solution) or Compound 1 (3 mg/kg group or Ascending Dose group) was orally administered to the hypertensive heart failure rat group once daily, and the vehicle was orally administered once daily to the normal control group. […] After five weeks of administration, an ultrasonograph (Aplio 300, Toshiba Medical Systems Corporation) was used to measure the left ventricular ejection fraction, and a non-invasive automated blood pressure measuring device (BP-98A, Softlon Co.,Ltd.) was used to measure the systolic blood pressure. After six weeks of administration, ADVantage P-V catheter (Model FTH-1918B-E318, Transonic Scisense Inc.) was inserted into the left ventricle from the apex to measure the left ventricular end-diastolic pressure. […] For statistical analysis, Student test or Aspin-Welch t test was conducted between the vehicle-administered normal control group and the vehicle-administered group of hypertensive heart failure rats. Dunnett’s multiple test was conducted for the Compound 1 group to the vehicle group of hypertensive heart failure rats. The significance level was two-sided 5%. Form the results, it was confirmed that the hypertensive heart failure rats developed HFpEF because the EDPVRβ and left ventricular end-diastolic pressure were increased whereas the left ventricular ejection fraction was not decreased, compared with the normal control group. […] Compound 1 also had no effect on the urine volume in the hypertensive heart failure rats.

Regarding `C[C@H]1C(=O)NC[C@@H]1C(=O)Nc1cc(-c2cc(F)cc(OC(C)(C)C)c2)n(C(F)(F)F)n1` [Compound 1], the “left ventricular ejection fraction” value is reported as “higher value” in series [1] (3 mg/kg group, oral once daily, eight weeks, vs vehicle, FIG. 2); “significantly increased” in series [1] (Ascending Dose group (3, then 6, then 8 mg/kg), oral once daily, eight weeks, vs vehicle, p < 0.05, FIG. 2); “increased” in series [1] (dose groups not distinguished (3 mg/kg or Ascending Dose), oral once daily, eight weeks). The “left ventricular end-diastolic pressure” value is recorded as “lower value; also recorded: suppressed” in series [1] (post-myocardial infarction heart failure rats, oral once daily, eight weeks, in comparison with the vehicle, FIG. 1); “significantly reduced” in series [2] (hypertensive heart failure (Dahl) rats, oral once daily, six weeks, vs vehicle, p < 0.05 and p < 0.01, FIG. 3). In addition, the HFrEF improving effect result in series [1] (post-myocardial infarction heart failure rats, overall conclusion) is “improved HFrEF; also recorded: has an HFrEF improving effect”. Besides, the “EDPVRβ (end-diastolic pressure-volume relationship β)” value in series [2] (3 mg/kg group, oral once daily, six weeks, vs vehicle, FIG. 4) is given as “lower value”; in series [2] (Ascending Dose group (3, then 6, then 8 mg/kg), oral once daily, six weeks, vs vehicle, p < 0.05, FIG. 4) it was “significantly reduced”; in series [2] (dose groups not distinguished, oral once daily, six weeks), “reduced”. In addition, in series [2] (hypertensive heart failure rats, after five weeks of administration, FIG. 6), the systolic blood pressure entry is listed as “had no effect”. For the same compound, the urine volume entry in series [2] (hypertensive heart failure rats, in comparison with the vehicle, FIG. 7) is listed as “did not affect; also recorded: had no effect”. In series [2] (hypertensive heart failure rats, overall conclusion), the HFpEF improving effect result is reported as “has an HFpEF improving effect”.
